Test results: patent publication US10160747B2, “Compounds and methods for kinase modulation, and indications therefor” (Plexxikon Inc., priority 2016, dated 2018)

How the values were obtained:
FLT3-D835Y = molecular target: T1, FLT3-D835Y (Homo sapiens, UniProt P36888, D835Y); experiment: FLT3-D835Y recombinant enzyme kinase assay (AlphaScreen); format: biochemical; conditions: 8 pt, GMean
T1 construct: purchased Invitrogen PV3967
T1 sequence (P36888 27-993 D835Y): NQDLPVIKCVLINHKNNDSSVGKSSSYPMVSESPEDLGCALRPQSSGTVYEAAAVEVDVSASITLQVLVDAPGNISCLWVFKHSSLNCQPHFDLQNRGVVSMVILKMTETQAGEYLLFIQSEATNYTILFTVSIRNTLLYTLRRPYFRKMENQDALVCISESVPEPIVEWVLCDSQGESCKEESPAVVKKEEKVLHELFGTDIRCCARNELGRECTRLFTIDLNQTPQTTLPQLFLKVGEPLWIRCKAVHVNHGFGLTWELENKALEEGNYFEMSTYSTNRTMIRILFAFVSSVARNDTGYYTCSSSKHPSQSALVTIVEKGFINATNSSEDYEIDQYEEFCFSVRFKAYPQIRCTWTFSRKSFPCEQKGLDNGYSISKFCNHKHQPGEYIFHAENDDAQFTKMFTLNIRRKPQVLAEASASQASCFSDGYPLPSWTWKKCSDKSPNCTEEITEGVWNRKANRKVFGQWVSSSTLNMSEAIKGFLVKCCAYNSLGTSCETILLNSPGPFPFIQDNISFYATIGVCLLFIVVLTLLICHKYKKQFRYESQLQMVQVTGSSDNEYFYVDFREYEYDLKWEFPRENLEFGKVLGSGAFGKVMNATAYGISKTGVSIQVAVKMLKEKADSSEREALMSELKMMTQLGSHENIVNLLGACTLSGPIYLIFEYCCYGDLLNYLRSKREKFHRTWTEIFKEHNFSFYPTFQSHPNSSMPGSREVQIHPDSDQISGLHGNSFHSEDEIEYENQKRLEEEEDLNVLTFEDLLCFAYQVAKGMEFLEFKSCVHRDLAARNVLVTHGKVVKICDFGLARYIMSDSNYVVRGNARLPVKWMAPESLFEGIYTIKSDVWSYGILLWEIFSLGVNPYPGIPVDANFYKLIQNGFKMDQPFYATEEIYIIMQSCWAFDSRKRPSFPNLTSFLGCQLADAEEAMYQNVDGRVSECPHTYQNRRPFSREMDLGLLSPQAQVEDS
Procedure, shortened: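 Recombinant kinase phosphorylates 30 nM biotinylated poly(Glu4-Tyr) peptide; ATP is 10 μM for FLT3-ITD and FLT3-D835Y, 100 μM for c-KIT. Phosphotyrosine detected by AlphaScreen (streptavidin donor, PY20 acceptor beads, 10 μg/mL), 580 nm signal after 680 nm excitation; IC50 from signal decrease.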

[1] = system: MOLM-14 D835Y (endogenous FLT3 ITD and transfected FLT3 D835Y); experiment: MOLM-14 D835Y cell proliferation assay (CellTiter-Glo); format: cell-based; conditions: Homo sapiens, MOLM-14, 72 h; 3 d growth, GMean
Procedure, shortened: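 MOLM-14 cells (FLT3 ITD) carrying D835Y or F691L, 1×10^4 cells/well, eight 1:3 dilutions from 1 μM final, 0.2% DMSO, 3 days at 37 °C, 5% CO2. Viability by CellTiter-Glo luminescence (ATP content); IC50 from concentration-response.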

| Compound | IC50 (FLT3-D835Y) [µM] | IC50 [1] [µM] |
| --- | --- | --- |
| Cc1ncc(NC(=O)Cc2ccc(-c3cnc(Nc4cnn(C(F)F)c4)nc3)cc2)cc1C(F)(F)F [Compound P-0210, 2-[4-[2-[[1-(difluoromethyl)pyrazol-4-yl]amino]pyrimidin-5-yl]phenyl]-N-[6-methyl-5-(trifluoromethyl)-3-pyridyl]acetamide] | 0.0001 to 10 | 0.0001 to 10 |
| COc1ncc(NC(=O)Cc2ccc(-c3cnc(Nc4cnn(C(F)F)c4)nc3)cc2)cc1C(F)(F)F [Compound P-0211, 2-[4-[2-[[1-(difluoromethyl)pyrazol-4-yl]amino]pyrimidin-5-yl]phenyl]-N-[6-methoxy-5-(trifluoromethyl)-3-pyridyl]acetamide] | 0.0001 to 10 | 0.0001 to 10 |
| COc1ncc(NC(=O)Cc2ccc(-c3cnc4[nH]nc(OC)c4c3)cc2)cc1C(F)(F)F [Compound P-0212, 2-[4-(3-methoxy-1H-pyrazolo[3,4-b]pyridin-5-yl)phenyl]-N-[6-methoxy-5-(trifluoromethyl)-3-pyridyl]acetamide] | 0.0001 to 10 | 0.0001 to 10 |
| CCOc1n[nH]c2ncc(-c3ccc(CC(=O)Nc4cnc(OC)c(C(F)(F)F)c4)cc3)cc12 [Compound P-0213, 2-(4-(3-ethoxy-1H-pyrazolo[3,4-b]pyridin-5-yl)phenyl)-N-(6-methoxy-5-(trifluoromethyl)pyridin-3-yl)acetamide] | 0.0001 to 10 | 0.0001 to 10 |
| COc1ncc(NC(=O)Cc2ccc(-c3cnc4[nH]c(C#CC(C)(C)O)cc4c3)cc2)cc1C(F)(F)F [Compound P-0214, 2-(4-(2-(3-hydroxy-3-methylbut-1-yn-1-yl)-1H-pyrrolo[2,3-b]pyridin-5-yl)phenyl)-N-(6-methoxy-5-(trifluoromethyl)pyridin-3-yl)acetamide] | 0.0001 to 10 | 0.0001 to 10 |
| COc1ncc(NC(=O)Cc2ccc(-c3cnc4[nH]nc(NC(=O)C(F)(F)F)c4c3)cc2)cc1C(F)(F)F [Compound P-0215, 2,2,2-trifluoro-N-[5-[4-[2-[[6-methoxy-5-(trifluoromethyl)-3-pyridyl]amino]-2-oxo-ethyl]phenyl]-1H-pyrazolo[3,4-b]pyridin-3-yl]acetamide] | 0.0001 to 10 | 0.0001 to 10 |
| COc1ncc(NC(=O)Cc2ccc(-c3cnc4[nH]nc(N)c4c3)cc2)cc1C(F)(F)F [Compound P-0216, 2-(4-(3-amino-1H-pyrazolo[3,4-b]pyridin-5-yl)phenyl)-N-(6-methoxy-5-(trifluoromethyl)pyridin-3-yl)acetamide] | 0.0001 to 10 | 0.0001 to 10 |
| CCOc1n[nH]c2ncc(-c3ccc(CC(=O)Nc4cnc(C)c(C(F)(F)F)c4)cc3)cc12 [Compound P-0217, 2-[4-(3-ethoxy-1H-pyrazolo[3,4-b]pyridin-5-yl)phenyl]-N-[6-methyl-5-(trifluoromethyl)-3-pyridyl]acetamide] | 0.0001 to 10 | 0.0001 to 10 |
| COc1n[nH]c2ncc(-c3ccc(CC(=O)Nc4cnc(C)c(C(F)(F)F)c4)cc3)cc12 [Compound P-0218, 2-[4-(3-methoxy-1H-pyrazolo[3,4-b]pyridin-5-yl)phenyl]-N-[6-methyl-5-(trifluoromethyl)-3-pyridyl]acetamide] | 0.0001 to 10 | 0.0001 to 10 |
| Cc1ncc(NC(=O)Cc2ccc(-c3cnc4[nH]c(C#CC(C)(C)O)cc4c3)cc2)cc1C(F)(F)F [Compound P-0220, 2-[4-[2-(3-hydroxy-3-methyl-but-1-ynyl)-1H-pyrrolo[2,3-b]pyridin-5-yl]phenyl]-N-[6-methyl-5-(trifluoromethyl)-3-pyridyl]acetamide] | 0.0001 to 10 | 0.0001 to 10 |
| COc1ncc(NC(=O)Cc2ccc(-c3cnc(Nc4cn[nH]c4C)nc3)cc2)cc1C(F)(F)F [Compound P-0221, N-[6-methoxy-5-(trifluoromethyl)-3-pyridyl]-2-[4-[2-[(5-methyl-1H-pyrazol-4-yl)amino]pyrimidin-5-yl]phenyl]acetamide] | 0.0001 to 10 | 0.0001 to 10 |
| COCCn1cc(Nc2ncc(-c3ccc(CC(=O)Nc4cc(C(F)(F)F)ccn4)cc3)cn2)cn1 [Compound P-0222, 2-[4-[2-[[1-(2-methoxyethyl)pyrazol-4-yl]amino]pyrimidin-5-yl]phenyl]-N-[4-(trifluoromethyl)-2-pyridyl]acetamide] | 0.0001 to 10 | 0.0001 to 10 |
| COc1ncc(NC(=O)Cc2ccc(-c3cnc4[nH]c(C#Cc5cncn5C)cc4c3)cc2)cc1C(F)(F)F [Compound P-0227, N-[6-methoxy-5-(trifluoromethyl)-3-pyridyl]-2-[4-[2-[2-(3-methylimidazol-4-yl)ethynyl]-1H-pyrrolo[2,3-b]pyridin-5-yl]phenyl]acetamide] | 0.0001 to 10 | 0.0001 to 10 |
| Cc1nn(C)cc1Nc1ncc(-c2ccc(CC(=O)Nc3cnc(C)c(C(F)(F)F)c3)cc2)cn1 [Compound P-0228, 2-[4-[2-[(1,3-dimethylpyrazol-4-yl)amino]pyrimidin-5-yl]phenyl]-N-[6-methyl-5-(trifluoromethyl)-3-pyridyl]acetamide] | 0.0001 to 10 | 0.0001 to 10 |
| Cc1ncc(NC(=O)Cc2ccc(-c3cnc(Nc4cnn(C)c4C)nc3)cc2)cc1C(F)(F)F [Compound P-0229, 2-[4-[2-[(1,5-dimethylpyrazol-4-yl)amino]pyrimidin-5-yl]phenyl]-N-[6-methyl-5-(trifluoromethyl)-3-pyridyl]acetamide] | 0.0001 to 10 | 0.0001 to 10 |
| COc1ncc(NC(=O)Cc2ccc(-c3cnc4[nH]nc(Cl)c4c3)cc2)cc1C(F)(F)F [Compound P-0230, 2-[4-(3-chloro-1H-pyrazolo[3,4-b]pyridin-5-yl)phenyl]-N-[6-methoxy-5-(trifluoromethyl)-3-pyridyl]acetamide] | 0.0001 to 10 | 0.0001 to 10 |
| O=C(Cc1ccc(-c2cnc(Nc3cnn(C4CC4)c3)nc2)cc1)Nc1cncc(C(F)(F)F)c1 [Compound P-0231, 2-[4-[2-[(1-cyclopropylpyrazol-4-yl)amino]pyrimidin-5-yl]phenyl]-N-[5-(trifluoromethyl)-3-pyridyl]acetamide] | 0.0001 to 10 | 0.0001 to 10 |
| Cc1ncc(NC(=O)Cc2ccc(-c3cnc(Nc4cnn(C5CC5)c4)nc3)cc2)cc1C(F)(F)F [Compound P-0232, 2-[4-[2-[(1-cyclopropylpyrazol-4-yl)amino]pyrimidin-5-yl]phenyl]-N-[6-methyl-5-(trifluoromethyl)-3-pyridyl]acetamide] | 0.0001 to 10 | 0.0001 to 10 |
| O=C(Cc1ccc(-c2cnc(Nc3cnn(C4CC4)c3)nc2)cc1)Nc1cnc(Cl)c(C(F)(F)F)c1 [Compound P-0233, N-[6-chloro-5-(trifluoromethyl)-3-pyridyl]-2-[4-[2-[(1-cyclopropylpyrazol-4-yl)amino]pyrimidin-5-yl]phenyl]acetamide] | 0.0001 to 10 | 0.0001 to 10 |
| COc1ncc(NC(=O)Cc2ccc(-c3cnc(Nc4cnn(C5CC5)c4)nc3)cc2)cc1C(F)(F)F [Compound P-0234, 2-[4-[2-[(1-cyclopropylpyrazol-4-yl)amino]pyrimidin-5-yl]phenyl]-N-[6-methoxy-5-(trifluoromethyl)-3-pyridyl]acetamide] | 0.0001 to 10 | 0.0001 to 10 |
| O=C(Cc1ccc(-c2cnc(Nc3cnn(C4CC4)c3)nc2)cc1)Nc1ccc(C(F)(F)F)nc1 [Compound P-0235, 2-[4-[2-[(1-cyclopropylpyrazol-4-yl)amino]pyrimidin-5-yl]phenyl]-N-[6-(trifluoromethyl)-3-pyridyl]acetamide] | 0.0001 to 10 | 0.0001 to 10 |
| O=C(Cc1ccc(-c2cnc(Nc3cnn(C4CC4)c3)nc2)cc1)Nc1ccc(C(F)(F)F)cn1 [Compound P-0236, 2-[4-[2-[(1-cyclopropylpyrazol-4-yl)amino]pyrimidin-5-yl]phenyl]-N-[5-(trifluoromethyl)-2-pyridyl]acetamide] | 0.0001 to 10 | 0.0001 to 10 |
| O=C(Cc1ccc(-c2cnc(Nc3cnn(C4CC4)c3)nc2)cc1)Nc1cc(C(F)(F)F)ccn1 [Compound P-0237, 2-[4-[2-[(1-cyclopropylpyrazol-4-yl)amino]pyrimidin-5-yl]phenyl]-N-[4-(trifluoromethyl)-2-pyridyl]acetamide] | 0.0001 to 10 | 0.0001 to 10 |
